{"source": "paper PMC9814792", "about": "(Communications Chemistry, 2022)", "key": {"HCT116/OxR cells": {"tested_on": "HCT116/OxR cells", "assay": "72 h cell viability (MTT) assay", "assay_type": "cell-based, human", "experimental": "Absorbance was measured at 450 nm (at 620 nm as reference) using the multimode plate reader Tecan Infinite 200 Pro (Zurich, Switzerland). Cytotoxicity was expressed as IC50 values calculated from full dose-response curves using the 4 parameter nonlinear regression model of GraphPad Prism 8 software (La Jolla, CA, USA)."}, "[1]": {"tested_on": "HCT116, HCT116/OxR, A2780, A2780/Cis cells", "assay": "72 h cell viability (MTT) assay, all malignant cell models", "assay_type": "cell-based, human", "experimental": "(§1) Cells were seeded (3–4 ×10^3 cells/well) in 96-well plates in 100 µL and after 24 h recovery treated with 100 µL of compounds at the indicated concentrations in triplicates. After 72 h drug exposure cell viability was determined by 3-(4,5-dimethylthiazol-2-yl)-2,5-diphenyltetrazolium bromide (MTT)-vitality assay (EZ4U, Biomedica, Vienna, Austria) following the manufacturer’s recommendations, as published. Absorbance was measured at 450 nm (at 620 nm as reference) using the multimode plate reader Tecan Infinite 200 Pro (Zurich, Switzerland). Cytotoxicity was expressed as IC50 values calculated from full dose-response curves using the 4 parameter nonlinear regression model of GraphPad Prism 8 software (La Jolla, CA, USA)."}, "CT26 cells": {"tested_on": "CT26 cells", "assay": "72 h cell viability (MTT) assay", "assay_type": "cell-based, murine", "conditions": "CT26, 72 h", "experimental": "as §1"}, "A2780 cells": {"tested_on": "A2780 cells", "assay": "72 h cell viability (MTT) assay", "assay_type": "cell-based, human", "conditions": "A2780, 72 h continuous exposure; read-out: IC50 value (95% confidence interval)", "experimental": "as §1"}, "HCT116 cells": {"tested_on": "HCT116 cells", "assay": "72 h cell viability (MTT) assay", "assay_type": "cell-based, human", "conditions": "HCT116, 72 h continuous exposure; read-out: IC50 value (95% confidence interval)", "experimental": "as §1"}, "F331, BEC, HaCat cells": {"tested_on": "F331, BEC, HaCat cells", "assay": "72 h cell viability (MTT) assay, non-malignant cell types", "assay_type": "cell-based, human", "experimental": "as §1"}}}
{"smiles": "CCCCS(=N)(=O)CCC(NC(=O)[O][Pt]1([O]C(C)=O)[O]C(=O)C(=O)[O]1)C(=O)O.NC1CCCCC1N", "note": "(mixture of isomers) [BSO-OxOAc, (OC-6-34)-Acetato(((1 S)-3-(butylsulfonimidoyl)-1-carboxypropyl)carbamato)((1 R,2 R)-1,2-cyclohexanediamino)oxalatoplatinum(IV)]", "values": [{"measurement": "IC50", "setting": "HCT116/OxR cells; HCT116/OxR, 72 h continuous exposure, read-out: IC50 value (95% confidence interval)", "result": 95.5, "unit": "µM"}, {"measurement": "resistance factor", "setting": "HCT116/OxR cells; IC50 HCT116/OxR divided by IC50 HCT116", "result": 2.9}, {"measurement": "enhancement of IC50 values as compared to oxaliplatin", "setting": "[1]", "result": "10- to 50 fold"}, {"measurement": "higher IC50 value as compared to oxaliplatin", "setting": "CT26 cells", "result": "> 58", "unit": "fold"}, {"measurement": "IC50", "setting": "A2780 cells", "result": 20.6, "unit": "µM"}, {"measurement": "IC50", "setting": "HCT116 cells", "result": 32.1, "unit": "µM"}, {"measurement": "activity against non-malignant cell types", "setting": "F331, BEC, HaCat cells", "result": "widely inactive"}]}
